Values of other authors, collected in US20240352056A1, “Improved methods for production of cyclic guanosine-monophosphate analogues” (Mireca Medicines GmbH, priority 2021, published 2024).

Key:
[1] = tested on: cGMP-dependent protein kinase
[2] = tested on: cAMP-dependent protein kinase
[3] = tested on: rd1 and rd2 photoreceptors; settings: rd1 and rd2 mouse retinitis pigmentosa models, in vitro and in vivo

| Compound | antagonism of the activation of the cGMP-dependent protein kinase [1] | binding to cGMP-dependent protein kinase and stimulation of its phosphotransferase activity [1] | antagonism / inhibition of cAMP-dependent protein kinase [2] | further results |
| --- | --- | --- | --- | --- |
| O=c1c2nc(Br)n([C@@H]3O[C@@H]4CO[P@@](O)(=S)O[C@H]4[C@H]3O)c2nc2[nH]c(-c3ccccc3)cn12 [1a, Triethylammonium Rp-8-Bromo-β-phenyl-1,N2-ethenoguanosine-3′, 5′-cyclic monophosphorothioate] | – | – | – | neuroprotective effects in vivo (photoreceptors): potent neuroprotective effects in vivo; activity towards PKG (agonist or antagonist) (PKG): antagonistic activity towards PKG |
| Nc1nc2c(nc(Cl)n2[C@@H]2O[C@@H]3CO[P@@](O)(=S)O[C@H]3[C@H]2O)c(=O)[nH]1 [(Rp)-8-Cl-cGMPS, 8-chloroguanosine 3′, 5′-monophosphorothioate] | antagonized the activation of the cGMP-dependent protein kinase | bound to the enzyme without stimulation of its activity | weak inhibitor | selectivity for cGMP-dependent over cAMP-dependent protein kinase [1]: rather selective inhibitor of the cGMP-dependent protein kinase |
| Nc1nc2c(ncn2[C@@H]2O[C@@H]3COP(O)(=S)O[C@H]3[C@H]2O)c(=O)[nH]1 (stereo partly drawn) [(Rp)-cGMPS, guanosine 3′, 5′-monophosphorothioate] | antagonized the activation of the cGMP-dependent protein kinase | bound to the enzyme without stimulation of its activity | antagonized the activation of cAMP-dependent protein kinase | – |
| Nc1nc2c(nc(Cl)n2[C@@H]2O[C@@H]3CO[P@@](O)(=S)O[C@H]3[C@H]2O)c(=O)[nH]1 [(Sp)-8-Cl-cGMPS, 8-chloroguanosine 3′, 5′-monophosphorothioate] | – | stimulated its phosphotransferase activity | – | – |
| Nc1nc2c(ncn2[C@@H]2O[C@@H]3COP(O)(=S)O[C@H]3[C@H]2O)c(=O)[nH]1 (stereo partly drawn) [(Sp)-cGMPS, guanosine 3′, 5′-monophosphorothioate] | – | stimulated its phosphotransferase activity | – | – |
| Nc1nc2c(nc(Br)n2[C@@H]2O[C@@H]3COP(O)(=S)O[C@H]3[C@H]2O)c(=O)[nH]1 (stereo partly drawn) [Rp-8-Br-cGMPS] | – | – | – | protection of photoreceptors [3]: protection of rd1 and rd2 photoreceptors |
